We go through ten molecules from patent publication US11078232B2, “Preparation and use of molecular site targeted and activated kinase inhibitor” (Yafei Shanghai Biology Medicine Science & Technology Co. …, priority 2017, dated 2021).

A short description of data set [1]: Stability of carbohydrate-linked enzyme substrate peptide linkers. Type of data set: physicochemical. Particulars: linker: carbohydrate linked to the enzyme substrate peptide. As for the experimental part: (§1) The specific aspartic acid endopeptidase (Legumain) enzyme substrate peptide was ligated to different types of carbohydrates, and the stability and enzymatic cleavage efficiency of the resulting linker were tested, and a strong activation was predicted.

In data set [2] the target is T1, aspartic acid endopeptidase (Legumain) (Homo sapiens, UniProt Q99538).
T1 sequence (Q99538 18-323): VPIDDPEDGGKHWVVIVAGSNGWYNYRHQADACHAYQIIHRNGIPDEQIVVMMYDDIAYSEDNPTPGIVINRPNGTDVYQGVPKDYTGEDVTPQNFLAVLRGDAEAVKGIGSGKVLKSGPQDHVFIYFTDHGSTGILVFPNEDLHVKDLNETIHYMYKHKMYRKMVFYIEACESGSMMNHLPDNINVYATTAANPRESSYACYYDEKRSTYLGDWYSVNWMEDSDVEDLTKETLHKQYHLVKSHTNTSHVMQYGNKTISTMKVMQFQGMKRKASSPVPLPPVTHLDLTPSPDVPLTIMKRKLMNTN
In words: Enzymatic cleavage (digestion) efficiency of linkers. Particulars: linker cleaved by Legumain. The data set is classed as biochemical. As for the experimental part:
as §1

A short description of data set [3]: Solid stability, 60° C. for 10 days in the dark (HPLC). Type of data set: physicochemical. Conditions: solid, 60° C., 10 days, dark; for Stability(%): content versus time 0. The procedure: The test was carried out by leaving it at 60° C. for 10 days in the dark. The ratio of the change in the content of the compound to the compound at time 0 was measured by HPLC, and the stability value (%) was calculated.

For data set [4], the system named is D121 lung cancer cells. In words: D121 lung cancer immunotherapy model. Particulars: single agent; for Tumor inhibition rate/% (week 7): i.v. ⅙ MTD once a week for 4 weeks; for CD8: CD45 (%): tumor CD8+ T cells among CD45-positive cells, flow cytometry.
Data set [5] addresses T2, aspartic endopeptidase (Homo sapiens, UniProt Q99538).
T2 sequence (Q99538 18-323): T1 sequence (Q99538 18-323)
In words: Activation efficiency by aspartic endopeptidase (HPLC). The data set is classed as biochemical. Conditions: 1 mg/ml compound, enzyme 1 μmol/L, pH 6.0, 37° C., 2 hours; ratio of released product to original compound. The procedure:
The sample compound and a portion of the control compound (herein, all of the control compounds can be synthesized by a method similar to that described in Examples 1-3) were uniformly diluted 10-fold to 1 mg/ml with the enzyme-digesting solution. In this experiment, 1 mg/ml of the sample compound was added to the aspartic endopeptidase (1 μmol/L, pH 6.0) at 37° C. for 2 hours. After the reaction, the enzyme digest was able to release the enzyme-digested product. The decrease in the compound and the increase in the product were examined by HPLC to compare the enzyme activation efficiency (the ratio of the product released by the enzyme cleavage to the original compound).

Data set [6] concerns BALB/C mouse. In words: MTD (maximum tolerated dose) acute toxicity in mice. The data set is classed as in vivo. Particulars: intravenous; for Number of deaths: 10 mice per group; for Death dose: observed 17 days. The text has this:
(§2) Test purpose: to investigate the acute toxicity of highly activated compounds by targeted site molecules of the invention by measuring the MTD (maximum tolerated dose) experiment in mice.
(§3) The injections of each drug and the control drug were uniformly dissolved using water for injection, and diluted to the corresponding dose with physiological saline during the test.
(§4) Methods and results: […] BALB/C mice, weighing 19-21 g, were randomly divided into 10 groups, with 10 mice in each group. […] A control test of the saline group and the adriamycin group injection (commercially available, Beijing Yue kang) was carried out, and the injection volume of each mouse was 0.2 ml. […] On the D3, D5, and D14, blood samples were taken for whole blood count.

Assay in data set [7]: as above
Type of data set: in vivo, mouse. Particulars: mouse, in vivo, BALB/C mice, intravenous, observed 17 days; for MTD at 17 days: female.
Description: as §2, §3, §4

Data set [8] relates to CT26 tumor cells. In words: CT26 immunotherapy model (Example 15). Type of data set: in vivo, mice. Conditions: for Cure rate % / Number of cures: 10 in each group; for Tumor inhibition rate % (Day 42): IV ⅓ MTD once a week, 6 weeks; for Recurrence rate % (Week 7): cured mice re-inoculated with CT26 cells after 50 days. As for the experimental part: (§5) 1) CT26 tumor cells were purchased from ATCC, and the cells were cultured using a 10% fetal bovine serum DMEM medium at 37° C., 5% CO2. The cells were passaged every 3 days and the cells were used within 15 generations.
(§6) 2) Tumor production: 10^6 live CT26 tumor cells were injected subcutaneously into the back of tumor-immunized […], and treatment was started when the tumor grew to about 0.3-0.4 cm. The tumor size (mm^3) of the mice was recorded and compared with the solvent control group. The tumor inhibition rate on day 42 was calculated in the solvent control group.
(§7) 3) Treatment process: IV injection is used, and the drug is used at a dose of ⅓ MTD once a week Immunosuppressive IV injection treatment once a week for a total of 6 weeks of treatment.
(§8) 4) The cure rate of 10 in each group was counted. After 50 days, the cured mice and wild groups were inoculated […] to detect recurrence.

The subject of data set [9] is CT26 tumor cells. In words: CT26 treatment model (Example 17). The data set is classed as in vivo, mice. Particulars: CT26 model as in Example 15. The procedure:
as §5, §6, §7, §8
The CT26 immunotherapy model was constructed as in Example 15, and the pharmacodynamic and immunotherapeutic effects of the compounds S4-S6, S9-S12 and S15-S18 in the CT26 treatment model were tested.

`CC(/N=C/[C@H](O)[C@@H](O)[C@H](O)CO)C(=O)NC(C)C(=O)NC(CC(N)=O)C(=O)Nc1ccc(CO)cc1` (some centres unmarked) yielded a stability in data set [1] of 78.9%. Further, the Digestion efficiency in data set [2] is listed as 60.4%.

`C[C@H](N=C[C@H](O)[C@@H](O)[C@H](O)[C@H](O)CO)C(=O)N[C@@H](C)C(=O)N[C@@H](CC(N)=O)C(=O)Nc1ccc(COC(=O)N(C)CCNC(=O)c2cc(Oc3ccc(NC(=O)Nc4ccc(Cl)c(C(F)(F)F)c4)cc3)ccn2)cc1` [Compound C4, Glucose-AAN-PABC-Compound a, reference compound]: in data set [3], the “Stability verdict (stable / unstable)” value is given as “unstable” and the “Stability(%)” value amounted to 85.7%. In data set [4], the “Tumor inhibition rate/% (week 7)” value was 40.8% and the “CD8: CD45 (%)” value worked out at 10.7%. Further, the “Activation efficiencies (%)” value in [5] came out at 46.7%. In addition, in data set [6], the Number of deaths is given as 2 and the “Death dose” value is reported as 90 mg/kg. The maximal tolerated dose (MTD) in data set [7] is 80 mg/kg. Moreover, in data set [8], the Cure rate % was determined as 0%, the Number of cures is 0 and the “Tumor inhibition rate % (Day 42)” value is listed as 36.6%.

As to `CC(NC(=O)C(C)NC(=O)[C@H](O)[C@H](O)[C@@H](O[C@@H]1O[C@H](CO)[C@H](O)[C@H](O)[C@H]1O)[C@H](O)CO)C(=O)NC(CC(N)=O)C(=O)Nc1ccc(COC(=O)Nc2nccc(-c3sc(C(C)(C)C)nc3-c3cccc(NS(=O)(=O)c4c(F)cccc4F)c3F)n2)cc1` (some centres unmarked) [Compound S4], in data set [4], the “Tumor inhibition rate/% (week 7)” value turned out to be 70.7% and the “CD8: CD45 (%)” value was 15.8%. Besides, in data set [9], the “CD8: CD45 (%)” value was 11.9%, the “Number of animals cured” value turned out to be 2, the “Recurrence rate/% (at week 10)” value stood at 0% and the “Tumor inhibition rate/% (at week 7)” value is given as 58.9%. Besides, in data set [6], the Number of deaths is listed as 2 and the “Death dose” value is listed as 300 mg/kg. In [7], this molecule gave a maximal tolerated dose (MTD) at 17 days of 280 mg/kg.

Turning to `CC(NC(=O)C(C)NC(=O)[C@H](O)[C@H](O)[C@@H](O[C@@H]1O[C@H](CO)[C@H](O)[C@H](O)[C@H]1O)[C@H](O)CO)C(=O)NC(CC(N)=O)C(=O)Nc1ccc(COC(=O)Nc2c(-c3nc4ccc(N5CCN(C)CC5)cc4[nH]3)c(=O)[nH]c3cccc(F)c23)cc1` (some centres unmarked) [Compound S5], in [4], the “Tumor inhibition rate/% (week 7)” value was determined as 76.7% and the “CD8: CD45 (%)” value is on record as 15.3%. In [9], the “CD8: CD45 (%)” value is 11.5%, the “Number of animals cured” value is given as 1, the “Recurrence rate/% (at week 10)” value is given as 0% and the “Tumor inhibition rate/% (at week 7)” value was 60.1%. Further, in [6], the Number of deaths amounted to 2 and the “Death dose” value was found to be 320 mg/kg. In addition, in [7], the maximal tolerated dose (MTD) at 17 days stood at 310 mg/kg.

For `CC(NC(=O)C(C)NC(=O)[C@H](O)[C@H](O)[C@@H](O[C@@H]1O[C@H](CO)[C@H](O)[C@H](O)[C@H]1O)[C@H](O)CO)C(=O)NC(CC(N)=O)C(=O)Nc1ccc(COC(=O)N2CC(C)(C)c3ccc(NC(=O)c4cccnc4NCc4ccncc4)cc32)cc1` (some centres unmarked) [Compound S6], in data set [4], the “Tumor inhibition rate/% (week 7)” value came to 73.4% and the “CD8: CD45 (%)” value turned out to be 14.4%. Besides, in data set [9], the “CD8: CD45 (%)” value came out at 14.9%, the “Number of animals cured” value is 1, the “Recurrence rate/% (at week 10)” value was 0% and the “Tumor inhibition rate/% (at week 7)” value came to 66.7%. In data set [6], the Number of deaths is 1 and the “Death dose” value stood at 290 mg/kg. For the same molecule, the MTD at 17 days in [7] was determined as 280 mg/kg.

`CC(NC(=O)C(NC(=O)[C@H](O)[C@H](O)[C@@H](O[C@@H]1O[C@H](CO)[C@H](O)[C@H](O)[C@H]1O)[C@H](O)CO)C(C)C)C(=O)NC(CC(N)=O)C(=O)Nc1ccc(COC(=O)N(C)CCNC(=O)c2cc(Oc3ccc(NC(=O)Nc4ccc(Cl)c(C(F)(F)F)c4)cc3)ccn2)cc1` (some centres unmarked) [Compound S7, Lacto-VAN-PABC-compound a]: in data set [3], the “Stability verdict (stable / unstable)” value was “stable” and the “Stability(%)” value is 97.2%. The “Activation efficiencies (%)” value in data set [5] turned out to be 90.5%. Further, in data set [6], the Number of deaths amounted to 1 and the “Death dose” value is listed as 345 mg/kg. Besides, in [7], the MTD at 17 days came to 300 mg/kg. In [8], the Cure rate % is recorded as 70%, the Number of cures is recorded as 7, the “Tumor inhibition rate % (Day 42)” value was 84.7% and the “Recurrence rate % (Week 7)” value is 0%.

For the molecule `CC(NC(=O)C(NC(=O)[C@H](O)[C@H](O)[C@@H](O[C@@H]1O[C@H](CO)[C@H](O)[C@H](O)[C@H]1O)[C@H](O)CO)C(C)C)C(=O)NC(CC(N)=O)C(=O)Nc1ccc(COC(=O)N(C)CCNC(=O)c2cc(Oc3ccc(NC(=O)Nc4ccc(Cl)c(C(F)(F)F)c4)c(F)c3)ccn2)cc1` (some centres unmarked) [Compound S8, Lacto-VAN-PABC-compound b], in [3], the “Stability verdict (stable / unstable)” value is listed as “stable” and the “Stability(%)” value came to 98.4%. Further, the “Activation efficiencies (%)” value in data set [5] worked out at 93.7%. Further, in data set [6], the Number of deaths was 2 and the “Death dose” value is 340 mg/kg. Moreover, the MTD at 17 days in data set [7] was 280 mg/kg. Moreover, in data set [8], the Cure rate % is given as 70%, the Number of cures turned out to be 7, the “Tumor inhibition rate % (Day 42)” value worked out at 73.4% and the “Recurrence rate % (Week 7)” value is recorded as 0%.

For `CC(NC(=O)C(NC(=O)[C@H](O)[C@H](O)[C@@H](O[C@@H]1O[C@H](CO)[C@H](O)[C@H](O)[C@H]1O)[C@H](O)CO)C(C)O)C(=O)NC(CC(N)=O)C(=O)Nc1ccc(COC(=O)N(C)CCNC(=O)c2cc(Oc3ccc(NC(=O)Nc4ccc(Cl)c(C(F)(F)F)c4)cc3)ccn2)cc1` (some centres unmarked) [Compound S13, Lacto-TAN-PABC-compound a], in data set [3], the “Stability verdict (stable / unstable)” value is “stable” and the “Stability(%)” value is given as 98.6%. Also, the “Activation efficiencies (%)” value in [5] turned out to be 98.6%. For the same molecule, in data set [6], the Number of deaths was 2 and the “Death dose” value came out at 360 mg/kg. In addition, the MTD at 17 days in data set [7] stood at 320 mg/kg. Moreover, in data set [8], the Cure rate % came out at 80%, the Number of cures amounted to 8, the “Tumor inhibition rate % (Day 42)” value was determined as 79.7% and the “Recurrence rate % (Week 7)” value is 0%.

Regarding `CC(NC(=O)C(NC(=O)[C@H](O)[C@H](O)[C@@H](O[C@@H]1O[C@H](CO)[C@H](O)[C@H](O)[C@H]1O)[C@H](O)CO)C(C)O)C(=O)NC(CC(N)=O)C(=O)Nc1ccc(COC(=O)N(C)CCNC(=O)c2cc(Oc3ccc(NC(=O)Nc4ccc(Cl)c(C(F)(F)F)c4)c(F)c3)ccn2)cc1` (some centres unmarked) [Compound S14, Lacto-TAN-PABC-compound b], in data set [3], the “Stability verdict (stable / unstable)” value was “stable” and the “Stability(%)” value is given as 97.8%. Besides, in data set [5], the “Activation efficiencies (%)” value is 99.5%. In data set [6], the Number of deaths came out at 1 and the “Death dose” value came to 350 mg/kg. The MTD at 17 days in data set [7] was 310 mg/kg. In [8], the Cure rate % worked out at 80%, the Number of cures is given as 8, the “Tumor inhibition rate % (Day 42)” value was found to be 85.% and the “Recurrence rate % (Week 7)” value was 0%.

Regarding “Lacto-AAN-PABC-Paclitaxel [Compound C5, reference compound]”, in data set [3], the “Stability verdict (stable / unstable)” value was “unstable” and the “Stability(%)” value is on record as 89.3%. Moreover, the “Activation efficiencies (%)” value in data set [5] is 59.3%.

What is called MTD is the largest dose that counted as tolerated.
